# Measurements taken from patent US6630125B2, “18F-labeled choline analogs” (priority 2000, dated 2003).
# Experiments:
# [1] = Human dosimetry estimation (MIRDOSE 3.1 from mouse biodistribution)
# Text: Urinary radioactivity was assumed to be retained within the urinary bladder. […] Since urinary excretion patterns in rodents are commonly more rapid than in the human, the assumption of no urinary clearance of radioactivity was precautionary. Bone uptake was distributed at the bone surfaces. The 70 kg adult male ORNL phantom was used since this would best reflect the primary study population (prostate carcinoma).
# [2] = test system: PC-3 human prostate cancer cells; experiment: Accumulation of radiotracers by cultured PC-3 cells; format: cell-based
# Description: The incubation media utilized for the experiments differed according to the cancer cell type (Table 1). On the day of the study, the medium was refreshed using a volume of 1 ml in each well. Cells were incubated in control conditions or with the addition of metabolic and growth factor receptor inhibitors to test the sensitivity of uptake of the radiotracers to specific inhibitions. […] Following a 30-min incubation period, the radiotracers (e.g., FDG or FCH) were added (˜2 µCi/well) and the cells were incubated for 2 hr. The cells were washed three times with phosphate buffered saline solution, released from the plates by briefly incubating with 0.05% trypsin in DMEM, transferred to test tubes, and counted for F-18 radioactivity in a gamma counter. The amount of radioactivity in the cells was normalized by the dose administered to each well.
# The present work studies the structure-activity relationships for purposes of optimization of the molecule for imaging prostate cancer. […] A number of structural analogs of choline were labeled as N-[^18F]fluoromethyl derivatives via the intermediate [^18F]fluorobromomethane (see Table 3). Uptake of the radiotracers was assessed in cultured PC-3 human prostate cancer cells and in a murine PC-3 xenograft model.
# [3] = test system: patients with breast cancer; experiment: PET imaging in patients with breast cancer; format: in vivo, human; details: person, metastatic breast cancer
# Description: (§1) In breast cancer patients, whole-body PET scans were obtained, beginning at 10 min post-administration of FCH. In patients with brain tumors, PET scans of the brain were obtained, beginning at 5 min post-administration of FCH.
# Thirteen patients with metastatic breast cancer and one patient with both primary and metastatic breast cancer were each imaged with both FCH-PET and FDG-PET within a period of less than one month.
# A person had undergone re-excision of right breast intraductal carcinoma 4 yr prior, then right modified radical mastectomy 3 yr prior followed by tamoxifen chemotherapy. Six months prior to the PET scans, metastatic breast cancer was detected by palpation (right breast sternal mass) and CT (mediastinal and hilar adenopathies, mass in right anterior pelvis). Tamoxifen therapy was stopped. […] Uptake of FCH was also observed in the corresponding tumors: sternal mass (SUV=14.6), mediastinal and hilar adenopathies (SUVs˜8.5), pelvic mass (SUV=6.5). […] Smaller metastases were indicated on the FCH-PET scan in the right chest wall and left lung that were not seen on the FDG-PET scan. Concerning the anterior pelvic tumor, there was observed a homogenous distribution of FDG across the tumor in the FDG-PET scan, whereas the FCH was preferentially distributed on the periphery of the tumor.
# [4] = test system: patients with brain tumors; experiment: PET imaging in patients with brain tumors; format: in vivo, human; details: 5 patients with resected brain tumors, after injection
# Description: as §1
# PET imaging was performed in 5 patients with resected brain tumors for evaluation of recurrence of cancer. Dynamic images were obtained over the brain for the first 15 min after injection of FCH (2.5-6 mCi). Transmission scans were acquired before injection of radiotracer for purposes of attenuation correction. […] Radioactivity concentration in normal brain tissue was very low, allowing excellent delineation of the tumor. […] (See FIG. 12)
# [5] = test system: PC-3 prostate cancer cells; experiment: Analysis of radiolabeled metabolites in PC-3 prostate cancer cells; format: cell-based, human
# Description: The primary hydrophilic metabolites of choline in mammals is phosphocholine and betaine. […] The HPLC system used a microprocessor-controlled solvent delivery system and a silica column (Adsorbosphere Silica (10μ), 250×4.6 mm, Alltech, Deerfield, Ill.). The column was kept at room temperature and the flow rate was maintained at 1.5 ml/min. […] Fractions of effluent were collected every 0.5 min and first counted for ^18F-radioactivity in a well-counter for experiments involving [^18F]FCH, then transferred to scintillation vials for counting for ^14C-radioactivity. The column was equilibrated for 6 min with Buffer A before injection. After the injection (<100 μl), Buffer A was delivered for 6 min which eluted betaine (3 min) from the column. […] Re-equilibration of the column with 100% A for 6 min preceded the next injection.
# Methanol (1 ml) was added to each well and the cells were lysed by maintaining the temperature at 37° C. for 30 min. The methanol phase was transferred to a glass test tube. Each well was rinsed with an additional 0.5 ml methanol which was added to the original fraction. To each tube, 3 ml chloroform and 1 ml 0.25 M sodium phosphate (pH=4.5) were added to separate lipids from water-soluble molecules. After vigorous mixing of the samples for 1 min, the two phases were separated, and a 0.5 ml aliquot of each phase was counted for ^18F and ^14C radioactivity. The aqueous phase was further analyzed for water-soluble metabolites using the gradient-HPLC method previously described.
# Cells incubated in 6-well plates for 2 hr with radiotracers were thoroughly washed to remove all extracellular radioactivity. The cells were lysed in methanol and the methanol solution added to chloroform to solubilize all lipophilic metabolites.
# [6] = calculated from mice biodistribution data
structure (smiles),measurement,setting,value
"C[N+](C)(CF)CCO.[Cl-] [FCH, dimethylfluoromethyl-2-hydroxyethylammonium chloride]",effective dose equivalent (EDE),[1]; 10 mCi administration,1.1 rem
same,largest organ dose (kidney),[1]; 10 mCi administration,8.1 rads/rems
same,"Human radiation dose estimate, Heart","[1]; calculated from mice FCH biodistribution data, 70 kg adult male phantom",0.046 rads/mCi
same,"Human radiation dose estimate, Bladder wall",[1]; [6],0.049 rads/mCi
same,"Human radiation dose estimate, Bone",[1]; [6],0.038 rads/mCi
same,"Human radiation dose estimate, Brain",[1]; [6],0.0071 rads/mCi
same,"Human radiation dose estimate, Kidney",[1]; [6],0.81 rads/mCi
same,"Human radiation dose estimate, Liver",[1]; [6],0.30 rads/mCi
same,"Human radiation dose estimate, Lung",[1]; [6],0.043 rads/mCi
same,"Human radiation dose estimate, Muscle",[1]; [6],0.032 rads/mCi
same,"Human radiation dose estimate, Ovaries",[1]; [6],0.039 rads/mCi
same,"Human radiation dose estimate, Red marrow",[1]; [6],0.043 rads/mCi
same,"Human radiation dose estimate, Testes",[1]; [6],0.028 rads/mCi
same,uptake in cultured PC-3 cells,[2],"~2 %/hr/100,000 cells plated"
same,"Uptake by PC-3 cancer cells, HC-3",[2]; 5 mM hemicholinium-3,0.18 ± 0.02 % dose/2 hr/105 cells plated
same,decrease in uptake by PC-3 cells with hemicholinium-3 (HC-3),[2]; HC-3 versus control,89%
same,uptake of FCH relative to HARA-1,[2]; PC-3 prostate cancer cells,3 fold
same,accumulation by cultured PC-3 cells compared with other tracers,[2]; control conditions,similarly to CH
same,"Uptake by PC-3 cancer cells, Control","[2]; control, 2 hr incubation",1.58 ± 0.18 % dose/2 hr/105 cells plated
same,Uptake by PC-3 cells,"[2]; inhibitor HC-3 (hemicholinium-3, 5 mM)",0.160 ± 0.009 % dose/2 hr/10^5 cells plated
same,Uptake by PC-3 cells,[2]; inhibitor none,1.574 ± 0.033 % dose/2 hr/10^5 cells plated
same,SUV of pelvic tumor / pelvic mass,[3],6.5
same,SUV of sternal mass,[3],14.6
same,SUVs of mediastinal and hilar adenopathies,[3],~8.5
same,time to plateau of radiotracer concentration in the tumor,[4],≤ 5 min
same,"^18F-labeled species: hydrophilic metabolites, FCH",[5]; +HC-3 (5 mM hemicholinium-3),0.04 ± 0.01 percentage of administered dose
same,"^18F-labeled species: hydrophilic metabolites, P-FCH",[5]; +HC-3 (5 mM hemicholinium-3),0.12 ± 0.03 percentage of administered dose
same,^18F-labeled species: lipophilic metabolites,[5]; +HC-3 (5 mM hemicholinium-3),0.01 ± 0.01 percentage of administered dose
same,"^18F-labeled species: hydrophilic metabolites, FCH","[5]; Control, 2 hr, 37° C.",0.29 ± 0.05 percentage of administered dose
same,"^18F-labeled species: hydrophilic metabolites, P-FCH","[5]; Control, 2 hr, 37° C.",7.1 ± 0.9 percentage of administered dose
same,^18F-labeled species: lipophilic metabolites,"[5]; Control, 2 hr, 37° C.",2.4 ± 0.4 percentage of administered dose
same,"incorporation of radioactivity into lipophilic species, FCH relative to [^14C]CH","[5]; PC-3 cells, 2 hr",5 fold
same,oxidation in the cancer cells (betaine / fluorobetaine by HPLC),"[5]; PC-3 cells, 2 hr",negligible
same,share of cell radioactivity found as phosphorylated tracer (phosphorylfluorocholine / phosphocholine),"[5]; PC-3 cells, 2 hr",Approximately 72%
same,share of total cell radioactivity as lipophilic metabolites,"[5]; PC-3 cells, 2 hr",25%
